Measurements from publication PMC6446940 (ChemMedChem, 2018).

Assays:
pseudovirus HIV-1HXB2 = assay: Single-cycle infection assay in TZM-bl cells; conditions: for antiviral activity (in words): SAR discussion of Table 1
MT-2 cells = assay: Cytotoxicity; type: cell-based, human; conditions: read-out: MT-2 CC50, MTS, mean ± SD, n=3
TZM-bl cells = assay: Cytotoxicity; type: cell-based; conditions: for cytotoxicity higher compared with the parent compounds: compared with NBD-14122 / NBD-14123; for CC50: read-out: TZMb-l CC50, TZM-bl cells, 3 days, MTS, mean ± SD, n=3; for cytotoxicity became higher: di-fluoro at position 2 of 1,3-benzodioxole, versus non-fluorinated compounds
HIV-1IIIB = assay: Multi-cycle infection assay in MT-2 cells; type: cell-based; conditions: read-out: MT-2 IC50, p24, mean ± SD, n=3
Cytotoxicity [1] = type: cell-based, human; conditions: human, MT-2 cells, MT-2 CC50, MT-2 cells, MTS; mean ± SD, n=3
Cytotoxicity [2] = type: cell-based; conditions: human, TZM-bl cells, TZMb-l CC50, TZM-bl cells, 3 days, MTS; mean ± SD, n=3
[3] = biological target: HIV-1 Reverse Transcriptase (RT) (Human immunodeficiency virus type 1 group M subtype B, UniProt P04585); assay: biochemical; type: biochemical

Row | Structure (SMILES) | CC50 (MT-2 cells) [µM] | CC50 (TZM-bl cells) [µM] | IC50 (HIV-1IIIB) [µM] | CC50 at 4 days (Cytotoxicity [1]) [µM] | CC50 at 3 days (Cytotoxicity [2]) [µM] | other results
1 | NCC(NC(=O)c1ccc(-c2ccc3nsnc3c2)[nH]1)c1ncc(CO)s1 (stereo not drawn) [NBD-14127, N-(2-amino-1-(5-(hydroxymethyl)thiazol-2-yl)ethyl)-5-(benzo[c][1,2,5]thiadiazol-5-yl)-1H-pyrrole-2-carboxamide] | 137 ± 1.5 | 96.7 ± 2.9 | 7.3 ± 1.5 |  |  | improvement in antiviral activity/potency compared with NBD-14123 (pseudovirus HIV-1HXB2): ~ 1.6 fold; cytotoxicity higher compared with the parent compounds (TZM-bl cells): about 1.5 fold
2 | Cc1nc(C(NC(=O)c2ccc(-c3ccc4c(c3)OCO4)[nH]2)C(C)(C)N)sc1CO (stereo not drawn) [NBD-14116, N-(2-amino-1-(5-(hydroxymethyl)-4-methylthiazol-2-yl)-2-methylpropyl)-5-(benzo[d][1,3]dioxol-5-yl)-1H-pyrrole-2-carboxamide] |  |  |  | 98 ± 2.2 | 55.2 ± 5.4 | 
3 | Cc1nc(C(NC(=O)c2ccc(-c3ccc4c(c3)OCO4)[nH]2)C(C)(C)N)sc1CO (stereo not drawn) [NBD-14117, N-(2-amino-1-(5-(hydroxymethyl)-4-methylthiazol-2-yl)-2-methylpropyl)-5-(benzo[d][1,3]dioxol-5-yl)-1H-pyrrole-2-carboxamide] | 98 ± 1.5 | 66.9 ± 1.4 | 2.5 ± 1 |  |  | 
4 | Cc1nc(C(CN)NC(=O)c2ccc(-c3ccc4c(c3)OCO4)[nH]2)sc1CO (stereo not drawn) [NBD-14111, N-(2-amino-1-(5-(hydroxymethyl)-4-methylthiazol-2-yl)ethyl)-5-(benzo[d][1,3]dioxol-5-yl)-1H-pyrrole-2-carboxamide] | 170 ± 9 | 146 ± 5.2 | 9.8 ± 4.8 |  |  | antiviral activity (in words) (pseudovirus HIV-1HXB2): lost its antiviral activity
5 | NCC(NC(=O)c1ccc(-c2ccc3c(c2)OCO3)[nH]1)c1nc(CO)cs1 (stereo not drawn) [NBD-14172, N-(2-amino-1-(4-(hydroxymethyl)thiazol-2-yl)ethyl)-5-(benzo[d][1,3]dioxol-5-yl)-1H-pyrrole-2-carboxamide] |  |  | 2.4 ± 0.3 | 156 ± 14.3 | 92.3 ± 2.9 | improvement in antiviral activity/potency compared with NBD-14123 (pseudovirus HIV-1HXB2): about 1.5 fold
6 | CNCC(NC(=O)c1ccc(-c2ccc3c(c2)OCO3)[nH]1)c1ncc(CO)s1 (stereo not drawn) [NBD-14139, 5-(benzo[d][1,3]dioxol-5-yl)-N-(1-(5-(hydroxymethyl)thiazol-2-yl)-2-(methylamino)ethyl)-1H-pyrrole-2-carboxamide] |  |  |  | 178 ± 8 | 149 ± 11.3 | 
7 | CC(C)(N)C(NC(=O)c1ccc(-c2ccc3c(c2)OCO3)[nH]1)c1ncc(CO)s1 (stereo not drawn) [NBD-14118, N-(2-amino-1-(5-(hydroxymethyl)thiazol-2-yl)-2-methylpropyl)-5-(benzo[d][1,3]dioxol-5-yl)-1H-pyrrole-2-carboxamide] |  |  |  | 123 ± 10.5 | 64.3 ± 3.7 | 
8 | CNCC(NC(=O)c1ccc(-c2ccc3c(c2)OCO3)[nH]1)c1ncc(CO)s1 (stereo not drawn) [NBD-14140, 5-(benzo[d][1,3]dioxol-5-yl)-N-(1-(5-(hydroxymethyl)thiazol-2-yl)-2-(methylamino)ethyl)-1H-pyrrole-2-carboxamide] | 173 ± 8 | 153 ± 11.5 | 9.32 ± 2.8 |  |  | 
9 | CNCC(NC(=O)c1ccc(-c2ccc3c(c2)OCO3)[nH]1)c1nc(CO)cs1 (stereo not drawn) [NBD-14158, 5-(benzo[d][1,3]dioxol-5-yl)-N-(1-(4-(hydroxymethyl)thiazol-2-yl)-2-(methylamino)ethyl)-1H-pyrrole-2-carboxamide] |  |  | 9.5 ± 0.5 | 192 ± 4.2 | 157 ± 7.8 | 
10 | CC1(C)Oc2ccc(-c3ccc(C(=O)NC(CN)c4ncc(CO)s4)[nH]3)cc2O1 (stereo not drawn) [NBD-14134, N-(2-amino-1-(5-(hydroxymethyl)thiazol-2-yl)ethyl)-5-(2,2-dimethylbenzo[d][1,3]dioxol-5-yl)-1H-pyrrole-2-carboxamide] | 89.3 ± 1.3 | 61.1 ± 1.4 | 15.3 ± 5 |  |  | antiviral activity (in words) (pseudovirus HIV-1HXB2): lost their antiviral potency
11 | CC(C)(N)C(NC(=O)c1ccc(-c2ccc3c(c2)OCO3)[nH]1)c1ncc(CO)s1 (stereo not drawn) [NBD-14119, N-(2-amino-1-(5-(hydroxymethyl)thiazol-2-yl)-2-methylpropyl)-5-(benzo[d][1,3]dioxol-5-yl)-1H-pyrrole-2-carboxamide] | 106 ± 4.4 | 69.2 ± 3.8 | 2.8 ± 0.9 |  |  | improvement in antiviral activity/potency compared with NBD-14123 (pseudovirus HIV-1HXB2): ~ 2.3 fold
12 | NCC(NC(=O)c1ccc(-c2ccc3c(c2)OCO3)[nH]1)c1ncc(CO)s1 (stereo not drawn) [NBD-14122, N-(2-amino-1-(5-(hydroxymethyl)thiazol-2-yl)ethyl)-5-(benzo[d][1,3]dioxol-5-yl)-1H-pyrrole-2-carboxamide] | 183 ± 3 | 154.4 ± 1.5 | 5.1 ± 0.4 |  |  | 
13 | NCC(NC(=O)c1ccc(-c2ccc3c(c2)OCO3)[nH]1)c1nc(CO)cs1 (stereo not drawn) [NBD-14173, N-(2-amino-1-(4-(hydroxymethyl)thiazol-2-yl)ethyl)-5-(benzo[d][1,3]dioxol-5-yl)-1H-pyrrole-2-carboxamide] | 176 ± 4.3 | 105 ± 7.9 | 8.2 ± 2.7 |  |  | 
14 | NCC(NC(=O)c1ccc(-c2ccc3nsnc3c2)[nH]1)c1ncc(CO)s1 (stereo not drawn) [NBD-14126, N-(2-amino-1-(5-(hydroxymethyl)thiazol-2-yl)ethyl)-5-(benzo[c][1,2,5]thiadiazol-5-yl)-1H-pyrrole-2-carboxamide] |  |  |  | 117 ± 4.3 | 79.9 ± 1 | improvement in antiviral activity compared with NBD-14122 (pseudovirus HIV-1HXB2): about 2.8 fold; cytotoxicity higher compared with the parent compounds (TZM-bl cells): about 1.5 fold
15 | Cc1nc(C(CN)NC(=O)C(=O)Nc2ccc3c(c2)OCO3)sc1CO (stereo not drawn) [NBD-14108, N1-(2-amino-1-(5-(hydroxymethyl)-4-methylthiazol-2-yl)ethyl)-N2-(benzo[d][1,3]dioxol-5-yl)oxalamide] |  |  |  | ≥ 650 | ≥ 750 | antiviral activity (in words) (pseudovirus HIV-1HXB2): completely lost
16 | CC1(C)CC(NC(=O)C(=O)Nc2ccc(Cl)cc2)CC(C)(C)N1 [NBD-556, reference compound] |  |  |  |  |  | IC50 ([3]; HIV-1 Reverse Transcriptase, mean ± SD, n=3): > 300 µM; activity against HIV-1 RT ([3]; at 300 μM): no activity
17 | NCC(NC(=O)c1ccc(-c2ccc3c(c2)OC(F)(F)O3)[nH]1)c1ncc(CO)s1 (stereo not drawn) [NBD-14145, N-(2-amino-1-(5-(hydroxymethyl)thiazol-2-yl)ethyl)-5-(2,2-difluorobenzo[d][1,3]dioxol-5-yl)-1H-pyrrole-2-carboxamide] | 41 ± 2.7 | 38.7 ± 1.3 | 3.1 ± 0.5 |  |  | improvement in antiviral activity (pseudovirus HIV-1HXB2; di-fluoro at position 2 of 1,3-benzodioxole, comparator not stated): ~ 1.7 fold; cytotoxicity became higher (TZM-bl cells): ~ 3.9 fold
18 | CC1(C)Oc2ccc(-c3ccc(C(=O)NC(CN)c4ncc(CO)s4)[nH]3)cc2O1 (stereo not drawn) [NBD-14133, N-(2-amino-1-(5-(hydroxymethyl)thiazol-2-yl)ethyl)-5-(2,2-dimethylbenzo[d][1,3]dioxol-5-yl)-1H-pyrrole-2-carboxamide] |  |  |  | 96.5 ± 1.2 | 64 ± 1.2 | antiviral activity (in words) (pseudovirus HIV-1HXB2): lost their antiviral potency
19 | NCC(NC(=O)c1ccc(-c2ccc3c(c2)OC(F)(F)O3)[nH]1)c1ncc(CO)s1 (stereo not drawn) [NBD-14144, N-(2-amino-1-(5-(hydroxymethyl)thiazol-2-yl)ethyl)-5-(2,2-difluorobenzo[d][1,3]dioxol-5-yl)-1H-pyrrole-2-carboxamide] |  |  |  | 43.4 ± 3.6 | 37.9 ± 2.4 | improvement in antiviral activity compared with NBD-14122 (pseudovirus HIV-1HXB2): ~ 4.5 fold; cytotoxicity became higher (TZM-bl cells): ~ 3.9 fold
